Source: patent publication US20210059955A1, “SYSTEMS AND METHODS FOR DECRYSTALLIZATION OF URIC ACID” (RL Patents, LLC, priority 2019, published 2021)
Like-named read-outs stand apart in the source and are kept apart here.

Columns and labels:
uric acid serum levels = details: test subject A; for Uric acid serum level: saturated sodium bicarbonate water bath 38° C., twice a day 60 minutes
Description: (§1) The method of the experiment includes test subject A submerging an affected joint into a warm bath containing water and sodium bicarbonate. The heat was used to facilitate opening of skin pores to facilitate absorption of the active ingredient or agent. […] Control subject B submerged their affected foot into a pure water bath without any other substance or compound at 38° C. for twice a day for durations of 60 minutes, and for a total of six months. […] A phlebotomist drew a vial of blood from each subject's arm, and the samples were processed by an analyzer, model AU480, by Beckman Coulter.
(§2) Both test subject A and control subject B were diagnosed of hyperuricemia based on personal and clinical assessments, such as, e.g., multiple previous acute gout attacks, presence of swelling and tophi at the affected joint, and measured uric acid serum levels above […]. Both test subject A and control subject B were not on any medication at the time of the experiment, and maintained a low-purine diet, such as, e.g., primarily fruits, vegetables, and bread.

[1] = test subject A, over the six-month experiment
Description: as §1, §2

O=C([O-])O.[Na+] [sodium bicarbonate]
Overall course of uric acid content (uric acid serum levels; over the six-month experiment): general decline | Uric acid serum level (uric acid serum levels; August 1 2018): 6.79 mg/dL | Uric acid serum level (uric acid serum levels; August 15 2018): 6.47 mg/dL | Uric acid serum level (uric acid serum levels; December 1 2018): 5.41 mg/dL | Uric acid serum level (uric acid serum levels; December 15 2018): 5.20 mg/dL | Uric acid serum level (uric acid serum levels; July 1 2018): 6.62 mg/dL | Uric acid serum level (uric acid serum levels; July 15 2018): 6.58 mg/dL | Uric acid serum level (uric acid serum levels; June 1 2018): 6.99 mg/dL | Uric acid serum level (uric acid serum levels; June 15 2018): 7.15 mg/dL | Uric acid serum level (uric acid serum levels; November 1 2018): 5.37 mg/dL | Uric acid serum level (uric acid serum levels; November 15 2018): 5.34 mg/dL | Uric acid serum level (uric acid serum levels; October 1 2018): 5.47 mg/dL | Uric acid serum level (uric acid serum levels; October 15 2018): 5.40 mg/dL | Uric acid serum level (uric acid serum levels; September 1 2018): 5.98 mg/dL | Uric acid serum level (uric acid serum levels; September 15 2018): 5.59 mg/dL | Tophi by visual inspection [1]: no longer visible
